According to patent publication US20250195513A1, “DEGRADATION OF IRAK4 BY CONJUGATION OF IRAK4 INHIBITORS WITH E3 LIGASE LIGAND AND METHODS OF USE” (BeiGene, Ltd., priority 2022, published 2025):

Tests used:
IRAK4 [1] = biological target: T1, IRAK4 (Homo sapiens, UniProt Q9NWZ3); test: IRAK4 Degradation Assay (Karpas299, HTRF/TR-FRET); format: cell-based; conditions: Karpas-299 cells; for Dmax: maximum percentage of degradation
T1 construct: endogenous in cells; host or cells: Karpas299
T1 sequence (Q9NWZ3 1-460): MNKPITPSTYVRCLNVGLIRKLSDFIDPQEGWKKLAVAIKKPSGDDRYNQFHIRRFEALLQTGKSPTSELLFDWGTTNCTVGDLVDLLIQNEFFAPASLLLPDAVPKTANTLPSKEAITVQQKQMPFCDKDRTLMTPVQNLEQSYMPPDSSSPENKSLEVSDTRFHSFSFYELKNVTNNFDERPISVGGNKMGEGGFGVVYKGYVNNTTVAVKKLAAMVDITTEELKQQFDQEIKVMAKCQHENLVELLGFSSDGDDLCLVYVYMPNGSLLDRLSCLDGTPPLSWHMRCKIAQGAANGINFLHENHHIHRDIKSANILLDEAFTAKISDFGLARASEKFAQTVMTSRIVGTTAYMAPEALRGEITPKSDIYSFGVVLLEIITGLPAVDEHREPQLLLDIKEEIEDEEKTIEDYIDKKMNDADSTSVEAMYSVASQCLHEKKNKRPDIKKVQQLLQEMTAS
How it was run: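 Compound potency as DC50 (IC50) came from four-parameter fits of percent IRAK4 degradation. IRAK4 was measured by HTRF (665/620 nm) in lysates of Karpas299 cells seeded at 0.2 million per well. Cells had been treated with compound dilutions for 5 or 24 h.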

IRAK4 [2] = biological target: T1, IRAK4; test: IRAK4 Degradation Assay with Human Serum (Karpas299, HTRF/TR-FRET); format: cell-based; conditions: Karpas-299 in human serum, 24 hrs treatment; for DC50: read-out: IRAK4 degradtion with human serum assay DC50; for Dmax: read-out: IRAK4 degradtion with human serum assay Dmax (%)
Protocol: IRAK4 degradation was measured using a TR-FRET-based method (Degorce, François, et al. Current chemical genomics. 2009, 3: 22). Karpas299 resuspended in Human serum AB (GEMINI, 100-512) were seeded into 96-well plates at the density of 0.2 million cells per well and then treated with a series dilution of compounds. After 24 hrs treatment, cells were pelleted via centrifugation and washed with PBS, add 40 μL lysis buffer (Cisbio) to each well after removal of the supernatant. Plates were then incubated at room temperature with shaking for 30 minutes. A total of 16 μL of cell lysates from each well of a 96-well plate was transferred to a 384-well white assay plate. IRAK4 level was quantitated using the HTRF kit as described by the manufacturer manual (Cisbio). FRET signals were measured using a PHERAstar FSX reader (BMG Labtech).
After treatment, add HTRF lysis buffer to each well; seal the plate and incubate 1 hour at room temperature on a plate shaker; Once the cells are lysed, 16 μL of cell lysate are transferred to a PE 384-well HTRF detection plate; 4 μL of pre-mixed HTRF antibodies are added to each well; Cover the plate with a plate sealer, spin 1000 rpm for 1 min, Incubate overnight at room temperature; Read on BMG PheraStar with HTRF protocol (337 nm-665 nm-620 nm).
The inhibition (degradation) percentage of the compound was calculated by the following equation: […]
The IC50 (DC50) value of a compound can be obtained by fitting the following equation
Wherein, X and Y are known values, and IC50, Hillslope, Top and Bottom are the parameters obtained by fitting with software. Y is the inhibition percentage (calculated from the equation), X is the concentration of the compound; IC50 is the concentration of the compound when the […] is reached. The smaller the IC50 value is, the stronger the inhibitory ability of the compound is. Vice versa, the higher the IC50 value is, the weaker the ability the inhibitory ability of the compound is; Hillslope represents the slope of the fitted curve, generally around 1 *; Bottom represents the minimum value of the curve obtained by data fitting, which is generally 0%±20%; Top represents the maximum value of the curve obtained by data fitting, which is generally 100%±20%. The experimental data were fitted by calculating and analyzing with Dotmatics data analysis software.

[3] = 5 h treatment, read-out: IRAK4 in Karpas-299 (5 h) Dmax (%)
[4] = 5 h treatment, read-out: IRAK4 in Karpas-299 (5 h) DC50
[5] = 24 h treatment, read-out: IRAK4 in Karpas-299 (24 h) Dmax (%)
[6] = 24 h treatment, read-out: IRAK4 in Karpas-299 (24 h) DC50

Dmax (IRAK4 [1]; [3]) [%] | DC50 (IRAK4 [1]; [4]) [nM] | Dmax (IRAK4 [1]; [5]) [%] | DC50 (IRAK4 [1]; [6]) [nM] | DC50 (IRAK4 [2]) [nM] | Dmax (IRAK4 [2]) [%] | SMILES
93 | 1.6 | 98 | 1.1 | 7.1 | 100 | CC(C)(O)c1cc2nn([C@H]3CC[C@H](N4CCN(CCNc5cc(F)c(C6CCC(=O)NC6=O)c(F)c5)CC4)CC3)cc2cc1NC(=O)c1ccc2cc(C#N)cnn12 (some centres unmarked) [Example 135, 3-cyano-N-(2-((1r,4r)-4-(4-(2-((4-(2,6-dioxopiperidin-3-yl)-3,5-difluorophenyl)amino)ethyl)piperazin-1-yl)cyclohexyl)-6-(2-hydroxypropan-2-yl)-2H-indazol-5-yl)pyrrolo[1,2-b]pyridazine-7-carboxamide]
96 | 3.8 | 96 | 2.1 | 55 | 98 | CC(C)(O)c1cc2nn(C34CC(N5CCN(C(=O)[C@@H]6CCN(c7cc(F)c([C@H]8CCC(=O)NC8=O)c(F)c7)C6)CC5)(C3)C4)cc2cc1NC(=O)c1cccc(C(F)(F)F)n1 [Example 152, N-(2-(3-(4-((R)-1-(4-((R)-2,6-dioxopiperidin-3-yl)-3,5-difluorophenyl)pyrrolidine-3-carbonyl)piperazin-1-yl)bicyclo[1.1.1]pentan-1-yl)-6-(2-hydroxypropan-2-yl)-2H-indazol-5-yl)-6-(trifluoromethyl)picolinamide]
 |  | 97 | 1.6 | 50 | 94 | CC(C)(O)c1cc2nn(C34CC(N5CCN(C(=O)C6CN(c7cc(F)c([C@H]8CCC(=O)NC8=O)c(F)c7)C6)CC5)(C3)C4)cc2cc1NC(=O)c1cccc(C(F)(F)F)n1 [Example 153, (R)—N-(2-(3-(4-(1-(4-(2,6-dioxopiperidin-3-yl)-3,5-difluorophenyl)azetidine-3-carbonyl)piperazin-1-yl)bicyclo[1.1.1]pentan-1-yl)-6-(2-hydroxypropan-2-yl)-2H-indazol-5-yl)-6-(trifluoromethyl)picolinamide]
 |  | 98 | 0.4 | 21 | 99 | CC(C)(O)c1cc2nn(C34CC(N5CCN(C(=O)C6CN(c7cc(F)c([C@H]8CCC(=O)NC8=O)c(F)c7)C6)CC5)(C3)C4)cc2cc1NC(=O)c1ccc2cc(C#N)cnn12 [Example 157, (R)-3-cyano-N-(2-(3-(4-(1-(4-(2,6-dioxopiperidin-3-yl)-3,5-difluorophenyl)azetidine-3-carbonyl)piperazin-1-yl)bicyclo[1.1.1]pentan-1-yl)-6-(2-hydroxypropan-2-yl)-2H-indazol-5-yl)pyrrolo[1,2-b]pyridazine-7-carboxamide]
 |  | 95 | 1.5 | 5.2 | 94 | CC(C)(O)c1cc2nn(C34CC(N5CCN(CCc6cc(F)c([C@H]7CCC(=O)NC7=O)c(F)c6)CC5)(C3)C4)cc2cc1NC(=O)c1ccc2cc(C#N)cnn12 [Example 159, (R)-3-cyano-N-(2-(3-(4-(4-(2,6-dioxopiperidin-3-yl)-3,5-difluorophenethyl)piperazin-1-yl)bicyclo[1.1.1]pentan-1-yl)-6-(2-hydroxypropan-2-yl)-2H-indazol-5-yl)pyrrolo[1,2-b]pyridazine-7-carboxamide]
 |  | 98 | 0.3 | 35 | 95 | COC[C@@H]1CN(C(=O)C2CN(c3cc(F)c([C@H]4CCC(=O)NC4=O)c(F)c3)C2)CCN1[C@H]1CC[C@H](n2cc3cc(NC(=O)c4ccc5cc(C#N)cnn45)c(C(C)(C)O)cc3n2)CC1 [Example 183, 3-cyano-N-(2-((1S,4r)-4-((S)-4-(1-(4-((R)-2,6-dioxopiperidin-3-yl)-3,5-difluorophenyl)azetidine-3-carbonyl)-2-(methoxymethyl)piperazin-1-yl)cyclohexyl)-6-(2-hydroxypropan-2-yl)-2H-indazol-5-yl)pyrrolo[1,2-b]pyridazine-7-carboxamide]
 |  | 96 | 0.7 | 126 | 97 | COC[C@H]1CN(C(=O)C2CN(c3cc(F)c([C@H]4CCC(=O)NC4=O)c(F)c3)C2)CCN1[C@H]1CC[C@H](n2cc3cc(NC(=O)c4ccc5cc(C#N)cnn45)c(C(C)(C)O)cc3n2)CC1 [Example 184, 3-cyano-N-(2-((1R,4r)-4-((R)-4-(1-(4-((R)-2,6-dioxopiperidin-3-yl)-3,5-difluorophenyl)azetidine-3-carbonyl)-2-(methoxymethyl)piperazin-1-yl)cyclohexyl)-6-(2-hydroxypropan-2-yl)-2H-indazol-5-yl)pyrrolo[1,2-b]pyridazine-7-carboxamide]
 |  | 96 | 0.6 | 11 | 98 | CC(C)(O)c1cc2nn([C@H]3CC[C@H](N4CCN(C(=O)C5CN(c6cnc(C7CCC(=O)NC7=O)c(F)c6)C5)CC4)CC3)cc2cc1NC(=O)c1ccc2cc(C#N)cnn12 (some centres unmarked) [Example 187, 3-cyano-N-(2-((1r,4r)-4-(4-(1-(6-(2,6-dioxopiperidin-3-yl)-5-fluoropyridin-3-yl)azetidine-3-carbonyl)piperazin-1-yl)cyclohexyl)-6-(2-hydroxypropan-2-yl)-2H-indazol-5-yl)pyrrolo[1,2-b]pyridazine-7-carboxamide]
 |  | 99 | 0.4 | 22 | 95 | CC(C)(O)c1cc2nn([C@H]3CC[C@H](N4CCN(C(=O)C5CN(c6cc(F)c([C@H]7CCC(=O)NC7=O)c(F)c6)C5)CC4=O)CC3)cc2cc1NC(=O)c1ccc2cc(C#N)cnn12 [Example 199, 3-cyano-N-(2-((1r,4r)-4-(4-(1-(4-((R)-2,6-dioxopiperidin-3-yl)-3,5-difluorophenyl)azetidine-3-carbonyl)-2-oxopiperazin-1-yl)cyclohexyl)-6-(2-hydroxypropan-2-yl)-2H-indazol-5-yl)pyrrolo[1,2-b]pyridazine-7-carboxamide]
 |  | 97 | 1.9 | 191 | 97 | CC(C)(O)c1cc2nn([C@H]3CC[C@H](N4CCN(C(=O)C5CN(c6cc(F)c([C@H]7CCC(=O)NC7=O)c(F)c6)C5)CC4)CC3)cc2cc1NC(=O)c1ccc2cc(C(F)(F)F)cnn12 [Example 207]
97 | 6.8 | 97 | 3.3 | 7 | 98 | COc1cc(N2CC(C(=O)N3CCN([C@H]4CC[C@H](n5cc6cc(NC(=O)c7ccc8cc(C#N)cnn78)c(C(C)(C)O)cc6n5)CC4)CC3)C2)cc(F)c1N1CCC(=O)NC1=O [Example 210, 3-cyano-N-(2-((1r,4r)-4-(4-(1-(4-(2,4-dioxotetrahydropyrimidin-1(2H)-yl)-3-fluoro-5-methoxyphenyl)azetidine-3-carbonyl)piperazin-1-yl)cyclohexyl)-6-(2-hydroxypropan-2-yl)-2H-indazol-5-yl)pyrrolo[1,2-b]pyridazine-7-carboxamide]
